Experimental data as given in patent US20070135438A1, “INHIBITORS OF HISTONE DEACETYLASE FOR THE TREATMENT OF DISEASE” (KALYPSYS, INC., priority 2005, published 2007).

Tests used:
HDAC = assay: In vitro HDAC-inhibition assay (Fluor de Lys fluorescent substrate); type: biochemical; conditions: HDAC enzyme source
Method: 1) In Vitro HDAC-Inhibition Assay:
This assay measures a compound's ability to inhibit acetyl-lysine deacetylation in vitro and was used as both a primary screening method as well as for IC50 determinations of confirmed inhibitors. The assay is performed in vitro using an HDAC enzyme source (e.g. partially purified nuclear extract or immunopurified HDAC complexes) and a proprietary fluorescent substrate/developer system (HDAC Quantizyme Fluor de Lys Fluorescent Activity Assay, BIOMOL). The assay is run in 1,536-well Greiner white-bottom plates using the following volumes and order of addition:
Step 1: Enzyme (2.5 μL) source added to plate (from refrigerated container)
Step 2: Compounds (50 nL) added with pin transfer device
Step 3: Fluor de Lys (2.5 μL) substrate added, incubate at RT, 30 minutes
Step 4: Developer (5 μL) solution is added (containing TSA), to stop reaction
Step 5: Plate Reader—data collection
The deacetylated fluorophore is excited with 360 nm light and the emitted light (460 nm) is detected on an automated fluorometric plate reader (Aquest, Molecular Devices).

HDAC in cells = assay: Cellular HDAC inhibition (cellular histone hyperacetylation assays); type: cell-based; conditions: cellular assay, cell line not stated
Method: 2) Cellular Histone Hyperacetylation Assays:
These two secondary assays evaluates a compound's ability to inhibit HDAC in cells by measuring cellular histone acetylation levels. The cytoblot facilitates quantitative EC50 information for cellular HDAC inhibition. Transformed cell lines (e.g. HeLa, A549, MCF-7) are cultured under standard media and culture conditions prior to plating.
Cells (approx. 2,500/well) are allowed to adhere 10-24 hours to wells of a 384-well Greiner PS assay plate in media containing 1-5% serum. Cells are treated with appropriate compound and specific concentrations for 0 to 24 hours. Cells are washed once with PBS (60 μL) and then fixed (95% ethanol, 5% acetic acid or 2% PFA) for 1 minute at RT (30 μL). Cells are blocked with 1% BSA for 1 hour and washed and stained with antibody (e.g. anti-Acetylated Histone H3, Upstate Biotechnology), followed by washing and incubation with an appropriate secondary antibody conjugated to HRP or fluorophore. For luminescence assays, signal is generated using Luminol substrate (Santa Cruz Biotechnology) and detected using an Aquest plate reader (Molecular Devices).
Cells (4×10^5/well) are plated into Corning 6-well dish and allowed to adhere overnight. Cells are treated with compound at appropriate concentration for 12-18 hours at 37° C. Cells are washed with PBS on ice. Cells are dislodged with rubber policeman and lysed in buffer containing 25 mM Tris, pH7.6; 150 mM NaCl, 25 mM MgCl2, 1% Tween-20, and nuclei collected by centrifugation (7500 g). Nuclei are washed once in 25 mM Tris, pH7.6; 10 mM EDTA, collected by centrifugation (7500 g). Supernatant is removed and histones are extracted using 0.4 M HCl. Samples are centrifuged at 14000 g and supernatants are precipitated in 1 ml cold acetone. The histone pellet is dissolved in water and histones are separated and analyzed by SDS-PAGE Coomassie and immunoblotting (anti-acetylated histone antibodies, Upstate Biotechnology) using standard techniques.

| IC50 (HDAC) [µM] | IC50 (HDAC in cells) [µM] | Structure (SMILES) |
| --- | --- | --- |
| < 1 | < 1 | CC(=O)SCC(=O)c1ccc(NS(=O)(=O)c2ccc(OCCN(C)C)cc2)nc1 [Example 2, Thioacetic acid S-(2-{6-[4-(2-dimethylamino-ethoxy)-benzenesulfonylamino]-pyridin-3-yl}-2-oxo-ethyl) ester] |
| < 1 | < 1 | CC(=O)SCC(=O)c1ccc(NS(=O)(=O)c2ccc(OCCCN(C)C)cc2)nc1 [Example 1, Thioacetic acid S-(2-{6-[4-(3-dimethylamino-propoxy)-benzenesulfonylamino]-pyridin-3-yl}-2-oxo-ethyl)ester] |
| – | < 1 | CC(=O)SCC(=O)c1ccc(NS(=O)(=O)c2ccc(OCC(C)(C)CN(C)C)cc2)nc1 [Example 3, Thioacetic acid S-(2-{6-[4-(3-dimethylamino-2,2-dimethyl-propoxy)-benzenesulfonylamino]-pyridin-3-yl}-2-oxo-ethyl) ester] |

| Structure (SMILES) | IC50 (HDAC) [µM] | IC50 (HDAC in cells) [µM] |
| --- | --- | --- |
| CC(=O)SCC(=O)c1ccc(NS(=O)(=O)c2ccc(OCCCCN(C)C)cc2)nc1 [Example 4, Thioacetic acid S-(2-{6-[4-(4-dimethylamino-butoxy)-benzenesulfonylamino]-pyridin-3-yl}-2-oxo-ethyl) ester] | < 1 | < 1 |
